Columns and labels:
[1] = Example 1: tolerability study of mirtazapine and reboxetine in normal healthy subjects; format: in vivo, human; conditions: 6 weeks; 15 mg mirtazapine in the evening, 2 mg reboxetine in the morning, or 2 or 4 mg reboxetine + 15 mg mirtazapine
Experimental: (§1) The subjects receive 2 capsules per day, one in the morning and one at bedtime. […] All medications are administered in an over-encapsulated format that ensures blinding of study participants, staff and investigators. All subjects are scheduled to receive a total of 6 weeks of therapy, and are required to return to the clinics after 1, 2, 4 and 6 weeks of therapy. Patients are required to complete paper self-assessments, electronic diary assessments, computer based cognitive testing, as well as vital signs and weight assessments at the clinic visits.

[2] = tested on: 5-HT and NA reuptake sites; conditions: ratio of Ki for serotonin reuptake to Ki for norepinephrine reuptake; from U.S. Pat. No. 6,642,235; cited from earlier work
[3] = Example 4: tolerability study of mirtazapine and betahistine in normal healthy subjects; format: in vivo, human; conditions: 6 weeks; 15 mg mirtazapine in the evening, 8 mg betahistine in the morning, or 8 or 16 mg betahistine + 15 mg mirtazapine
Experimental: as §1

[4] = cited from earlier work

Compound	side effects [1]	norepinephrine reuptake inhibitor selectivity (Ki5HT/KiNA) [2]	side effects [3]	appetite increase reported, share of patients ([4]; controlled studies, placebo 2%) [%]	weight gain of greater than or equal to 7% of body weight, share of patients ([4]; same controlled trials, placebo 0%) [%]
CCOc1ccccc1OC(c1ccccc1)C1CNCCO1 (racemic) [reboxetine, 2-[(2-ethoxyphenoxy)-phenyl-methyl]morpholine]	insomnia, nausea/vomiting, and weight loss	about 80	insomnia, nausea/vomiting, and weight loss	–	–
CN(C)CCC=C1c2ccccc2CCc2ccccc21 [amitriptyline]	–	–	–	6	5.9
CNCCc1ccccn1 [betahistine, 2-[2-(methylamino)ethyl]pyridine]	–	–	insomnia, nausea/vomiting, and weight loss	–	–
CN1CCN2c3ncccc3Cc3ccccc3C2C1 (stereo not drawn) [mirtazapine, 1,2,3,4,10,14b-hexahydro-2-methylpyrazino [2,1-a]pyrido[2,3-c]benzazepine]	weight gain, sedation, and cognitive deficits	–	weight gain, sedation, and cognitive deficits	–	–
(S,S)reboxetine	–	about 12,700	–	–	–
